Laboratory results reported in patent US20160046618A1, “Cyclopropyl Fused Thiazin-2-Amine Compounds as Beta-Secretase Inhibitors and Methods of Use” (AMGEN INC., priority 2014, published 2016).
Where two headings read alike, the source gives them in different places.

What was measured:
[1] = test system: Aβ40 in conditioned medium of cells stably expressing Amyloid Precursor Protein (APP); assay: In vitro BACE-1 cell-based assay (Aβ40 sandwich ELISA); conditions: read-out: IC50 IP (μM) BACE1 cell
In short: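 APP-expressing cells treated 24 h at 37 °C with compound in 10-point dose response (top 100 μM or 10 μM, 0.1% DMSO final). Secreted Aβ40 in conditioned medium quantified by sandwich ELISA (pAb40 capture, biotinylated 6E10 detection, time-resolved europium fluorescence); IC50 from percent inhibition versus concentration.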

human recombinant BACE2 = human recombinant BACE2 (Homo sapiens (Human), UniProt Q9Y5Z0); assay: In vitro enzymatic BACE2 FRET assay; format: biochemical; conditions: read-out: IC50 IP (μM) BACE2 enzyme
In short: (§1)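 Ni-NTA-purified recombinant protease incubated with compound; reaction started with 50 nM FRET peptide substrate (fluorophore/quencher flanking the BACE cleavage site) and run 1 h. Stopped with Tris buffer raising pH to neutral; fluorescence read at ex 488/em 590 nm.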

Recombinant Cat D = Recombinant Cat D (Homo sapiens (Human), UniProt P07339); assay: In vitro enzymatic Cathepsin D (Cat D) FRET assay; format: biochemical; conditions: read-out: IC50 IP (μM) CatD
In short: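 Cleavage of a 20 nM fluorophore/quencher peptide by CHO-expressed recombinant Cat D proceeded for one hour at pH 3.5 (0.05 M citrate, 5 mM CHAPS, 10% DMSO final). Tris addition neutralized the pH to end the reaction. Fluorescence was then measured (ex 500 nm/em 580 nm).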

human recombinant BACE1 = human recombinant BACE1 (Homo sapiens (Human), UniProt P56817); assay: In vitro enzymatic BACE1 FRET assay; format: biochemical; conditions: read-out: IC50 IP (μM) BACE1 enzyme
In short: as §1

Sequence of human recombinant BACE2 (Q9Y5Z0 63-518): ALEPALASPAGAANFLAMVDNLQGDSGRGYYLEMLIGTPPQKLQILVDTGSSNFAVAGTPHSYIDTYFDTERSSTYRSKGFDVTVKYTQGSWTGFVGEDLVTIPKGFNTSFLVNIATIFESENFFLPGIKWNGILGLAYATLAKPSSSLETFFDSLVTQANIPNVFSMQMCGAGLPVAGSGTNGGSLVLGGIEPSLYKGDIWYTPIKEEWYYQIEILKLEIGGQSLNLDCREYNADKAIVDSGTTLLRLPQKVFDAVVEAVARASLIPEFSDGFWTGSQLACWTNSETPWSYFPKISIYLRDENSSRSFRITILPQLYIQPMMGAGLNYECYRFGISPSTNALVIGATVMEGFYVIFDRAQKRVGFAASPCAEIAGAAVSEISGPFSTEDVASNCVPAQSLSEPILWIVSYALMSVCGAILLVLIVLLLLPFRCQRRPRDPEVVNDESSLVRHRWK
Sequence of Recombinant Cat D (P07339 65-412): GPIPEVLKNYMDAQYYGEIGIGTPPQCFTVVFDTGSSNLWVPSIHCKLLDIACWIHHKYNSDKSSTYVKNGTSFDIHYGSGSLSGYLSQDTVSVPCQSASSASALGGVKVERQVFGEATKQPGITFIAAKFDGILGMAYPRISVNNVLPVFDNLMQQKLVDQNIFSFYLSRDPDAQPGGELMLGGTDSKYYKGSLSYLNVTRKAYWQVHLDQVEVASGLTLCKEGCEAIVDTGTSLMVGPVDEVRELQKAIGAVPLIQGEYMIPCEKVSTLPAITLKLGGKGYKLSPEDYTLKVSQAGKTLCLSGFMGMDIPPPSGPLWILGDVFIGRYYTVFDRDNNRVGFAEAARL
Sequence of human recombinant BACE1 (P56817 46-501): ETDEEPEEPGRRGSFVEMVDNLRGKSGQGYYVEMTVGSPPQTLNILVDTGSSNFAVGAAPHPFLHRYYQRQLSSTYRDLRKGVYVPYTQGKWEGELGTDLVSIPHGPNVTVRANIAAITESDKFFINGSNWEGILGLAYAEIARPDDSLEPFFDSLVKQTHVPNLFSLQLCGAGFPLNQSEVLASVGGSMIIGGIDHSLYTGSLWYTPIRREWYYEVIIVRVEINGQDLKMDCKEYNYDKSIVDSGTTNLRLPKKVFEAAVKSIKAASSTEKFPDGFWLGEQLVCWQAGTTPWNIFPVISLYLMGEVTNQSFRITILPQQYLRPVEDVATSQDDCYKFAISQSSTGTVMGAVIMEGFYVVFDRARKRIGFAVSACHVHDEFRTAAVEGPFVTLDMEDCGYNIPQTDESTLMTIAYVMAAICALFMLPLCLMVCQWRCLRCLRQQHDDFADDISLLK

Row | Compound | IC50 ([1]; BACE1 cell-based assay) | IC50 (human recombinant BACE2; BACE2 FRET enzyme assay) | IC50 (Recombinant Cat D; Cathepsin D FRET enzyme assay) | IC50 (human recombinant BACE1; BACE1 FRET enzyme assay) | IC50 [1] | IC50 (human recombinant BACE2) | IC50 (Recombinant Cat D) | IC50 (human recombinant BACE1)
1 | Cc1cc(OC(F)F)cnc1C(=O)Nc1cc(F)c(F)c([C@@]2(CF)N=C(N)S[C@H]3C[C@H]32)c1 [Example 86, N-(3-((1S,5S,6S)-3-amino-5-(fluoromethyl)-2-thia-4-azabicyclo[4.1.0]hept-3-en-5-yl)-4,5-difluorophenyl)-5-(difluoromethoxy)-3-methyl-2-pyridinecarboxamide] | 0.0501 µM | 0.0206 µM | 715 µM | 0.00763 µM | – | – | – | –
2 | COc1cnc2c(Nc3cc(F)c(F)c([C@@]4(C)N=C(N)S[C@@]5(CO)C[C@H]54)c3)nccc2c1 [Example 89, ((1S,5S,6S)-3-amino-5-(2,3-difluoro-5-((3-methoxy-1,7-naphthyridin-8-yl)amino)phenyl)-5-methyl-2-thia-4-azabicyclo[4.1.0]hept-3-en-1-yl)methanol] | 0.0198 µM | 0.0364 µM | > 400 µM | 0.0228 µM | – | – | – | –
3 | COC[C@@]12C[C@@H]1[C@@](CF)(c1cc(Nc3nccc4cc(C#N)cnc34)cc(F)c1F)N=C(N)S2 [Example 90, 8-((3-((1R,5S,6R)-3-amino-5-(fluoromethyl)-1-(methoxymethyl)-2-thia-4-azabicyclo[4.1.0]hept-3-en-5-yl)-4,5-difluorophenyl)amino)-1,7-naphthyridine-3-carbonitrile] | 0.128 µM | 0.0112 µM | 34.1 µM | 0.00682 µM | – | – | – | –
4 | COc1cnc2c(Nc3cc(F)c(F)c([C@@]4(C)N=C(N)S[C@@]5(CO)C[C@H]54)c3)ncc(F)c2c1 [Example 91, ((1S,5S,6S)-3-amino-5-(2,3-difluoro-5-((5-fluoro-3-methoxy-1,7-naphthyridin-8-yl)amino)phenyl)-5-methyl-2-thia-4-azabicyclo[4.1.0]hept-3-en-1-yl)methanol] | 0.0256 µM | 0.0111 µM | 1210 µM | 0.00524 µM | – | – | – | –
5 | C[C@]1(c2cc(Nc3ncnc4cc(Cl)cnc34)cc(F)c2F)N=C(N)S[C@@]2(CO)C[C@H]21 [Example 92, ((1S,5S,6S)-3-amino-5-(5-((7-chloropyrido[3,2-d]pyrimidin-4-yl)amino)-2,3-difluorophenyl)-5-methyl-2-thia-4-azabicyclo[4.1.0]hept-3-en-1-yl)methanol] | 0.0102 µM | 0.00373 µM | 414 µM | 0.0052 µM | – | – | – | –
6 | COc1cnc2c(Nc3cc(F)c(F)c([C@@]4(C)N=C(N)S[C@@]5(CO)C[C@H]54)c3)nccc2n1 [Example 93, ((1S,5S,6S)-3-Amino-5-(2,3-difluoro-5-((2-methoxypyrido[3,4-b]pyrazin-5-yl)amino)phenyl)-5-methyl-2-thia-4-azabicyclo[4.1.0]hept-3-en-1-yl)methanol] | 0.0108 µM | 0.0342 µM | 1380 µM | 0.01 µM | – | – | – | –
7 | Cc1cc(C#N)cnc1C(=O)Nc1cc(F)c(F)c([C@@]2(C)N=C(N)S[C@@]3(C(F)F)C[C@@H]23)c1 [Example 94, N-(3-((1S,5S,6S)-3-amino-1-(difluoromethyl)-5-methyl-2-thia-4-azabicyclo[4.1.0]hept-3-en-5-yl)-4,5-difluorophenyl)-5-cyano-3-methylpicolinamide] | 0.00304 µM | < 0.00203 µM | 559 µM | 0.00053 µM | – | – | – | –
8 | COC[C@@]12C[C@@H]1[C@@](CF)(c1cc(NC(=O)c3ccc(Cl)cn3)cc(F)c1F)N=C(N)S2 [Example 96, N-(3-((1R,5S,6R)-3-amino-5-(fluoromethyl)-1-(methoxymethyl)-2-thia-4-azabicyclo[4.1.0]hept-3-en-5-yl)-4,5-difluorophenyl)-5-chloro-2-pyridinecarboxamide] | 0.0174 µM | 0.0024 µM | 40.4 µM | 0.00726 µM | – | – | – | –
9 | N#Cc1cnc2c(Nc3ccc(F)c([C@@]4(CF)N=C(N)S[C@@]5(CF)C[C@H]54)c3)ncnc2c1 [Example 97, 4-((3-((1S,5S,6S)-3-amino-1,5-bis(fluoromethyl)-2-thia-4-azabicyclo[4.1.0]hept-3-en-5-yl)-4-fluorophenyl)amino)pyrido[3,2-d]pyrimidine-7-carbonitrile] | 0.0312 µM | 0.0632 µM | 752 µM | 0.0118 µM | – | – | – | –
10 | C[C@]1(c2cc(NC(=O)c3ccc(Cl)cn3)cnc2F)N=C(N)S[C@@]2(CF)C[C@H]21 [Example 98, N-(5-((1S,5S,6S)-3-amino-1-(fluoromethyl)-5-methyl-2-thia-4-azabicyclo[4.1.0]hept-3-en-5-yl)-6-fluoropyridin-3-yl)-5-chloropicolinamide] | 0.0056 µM | 0.0032 µM | 3140 µM | 0.00665 µM | – | – | – | –
11 | COC(=O)[C@]12C[C@H]1[C@@](C)(c1cc(NC(=O)c3ccc(Cl)cn3)cnc1F)N=C(N)S2 [Example 99, (1S,5S,6S)-methyl 3-amino-5-(5-(5-chloropicolinamido)-2-fluoropyridin-3-yl)-5-methyl-2-thia-4-azabicyclo[4.1.0]hept-3-ene-1-carboxylate] | 0.0659 µM | 0.00824 µM | 1130 µM | 0.00659 µM | – | – | – | –
12 | C[C@]1(c2cc(NC(=O)c3ccc(Cl)cn3)cnc2F)N=C(N)S[C@@]2(CO)C[C@H]21 [Example 100, N-(5-((1S,5S,6S)-3-amino-1-(hydroxymethyl)-5-methyl-2-thia-4-azabicyclo[4.1.0]hept-3-en-5-yl)-6-fluoropyridin-3-yl)-5-chloropicolinamide] | 0.0112 µM | 0.0038 µM | > 400 µM | 0.0225 µM | – | – | – | –
13 | C[C@]1(c2cc(Nc3ncnc4cc(C#N)cnc34)ccc2F)N=C(N)S[C@@H]2[C@H]1C2(F)F [Example 101, 4-((3-((1R,5S,6R)-3-amino-7,7-difluoro-5-methyl-2-thia-4-azabicyclo[4.1.0]hept-3-en-5-yl)-4-fluorophenyl)amino)pyrido[3,2-d]pyrimidine-7-carbonitrile] | 0.094 µM | 0.023 µM | 720 µM | 0.0197 µM | – | – | – | –
14 | C#CCOc1cnc(C(=O)Nc2ccc(F)c([C@@]3(C)N=C(N)S[C@@H]4[C@H]3C4(F)F)c2)c(C)n1 [Example 102, N-(3-((1R,5S,6R)-3-amino-7,7-difluoro-5-methyl-2-thia-4-azabicyclo[4.1.0]hept-3-en-5-yl)-4-fluorophenyl)-3-methyl-5-(prop-2-yn-1-yloxy)pyrazine-2-carboxamide] | 0.058 µM | 0.019 µM | 361 µM | 0.00433 µM | – | – | – | –
15 | C#CCOc1cnc2c(Nc3cnc(F)c([C@@]4(C)N=C(N)S[C@@]5(CF)C[C@H]54)c3)nccc2n1 [Example 601, N-(5-((1S,5S,6S)-3-amino-1-(fluoromethyl)-5-methyl-2-thia-4-azabicyclo[4.1.0]hept-3-en-5-yl)-6-fluoro-3-pyridinyl)-2-(2-propyn-1-yloxy)pyrido[3,4-b]pyrazin-5-amine] | – | – | – | – | 0.00235 µM | 0.0361 µM | 1680 µM | 0.000589 µM
16 | C[C@]1(c2cc(Nc3nccc4nc(OCc5ncco5)cnc34)cnc2F)N=C(N)S[C@@]2(CF)C[C@H]21 [Example 602, N-(5-((1S,5S,6S)-3-amino-1-(fluoromethyl)-5-methyl-2-thia-4-azabicyclo[4.1.0]hept-3-en-5-yl)-6-fluoro-3-pyridinyl)-2-(1,3-oxazol-2-ylmethoxy)pyrido[3,4-b]pyrazin-5-amine] | – | – | – | – | 0.00204 µM | 0.0371 µM | 605 µM | 0.000871 µM
